Data published in patent publication US20220290200A1, “GENETICALLY MODIFIED HOST CELLS PRODUCING GLYCOSYLATED CANNABINOIDS” (OCTARINE BIO IVS, priority 2019, published 2022).

Key:
[1] = Chemical stability under acidic, alkaline, oxidative and heat stress (HPLC); conditions: for % of substrate remaining in solution: HPLC, relative to control at 30° C. pH 7.0; for percent remaining after 24 h exposure relative to a control at ambient conditions: alkaline conditions (NaOH, final pH 12.5); for release of CBD aglycone (stability of the glucoside bond): any condition (acidic, alkaline, oxidative, heat)
Description: Alternatively, chemical stability of cannabinoid glycosides was determined under alkaline, acidic, oxidative and heat stress as follows. 25 mM stock solutions of cannabinoids and cannabinoid glycosides were prepared in 100% methanol. 15 μL is mixed with 5 μL of 400 mM HCl solution (final pH=1.1), 400 mM NaOH solution (Final pH=12.5), 12% H2O2 solution (final concentration 3%), or H2O pH 7.0. […] A control under ambient conditions was also prepared where 15 μL of the cannabinoid or cannabinoid glycoside was added to 5 μL H2O pH 7.0 and incubated at 30° C. After 24 h samples were placed on ice and 60 μL of ice-cold 100% methanol is added to each sample. Samples were centrifuged and transferred to HPLC vials for analysis. The remaining concentration of cannabinoid or cannabinoid glycoside was quantified by comparing to authentic analytical standards. Determining the presence of degradation products were determined by comparing with authentic analytical standards.
CBD, CBD-1′-O-β-D-glucoside (OB1), and CBD-1′-O-β-D-glucosyl-3′-O-β-D-glucoside (OB6) were exposed to oxidative, alkaline, acidic and heat conditions as described above, and their degradation quantified by HPLC analysis by measuring the amount of compound remaining in solution after 24 h exposure to a given condition and expressed as percent (%) remaining after 24 h exposure relative to a control at ambient conditions. Also measured was the accumulation of the known CBD degradation product THC, expressed as percent accumulated after 24 h exposure.

[2] = Hepatic microsomal stability; conditions: for CLint / t1/2: human liver microsomes 0.5 mg/mL, 1 μM compound, NADPH and UDP-glucuronic acid
Description: Hepatic microsomal stability of cannabinoid glycosides were determined by incubating 2 μM of molecule with HepaRG™ human liver microsomes (Sigma) supplemented with NADPH at 37° C. Samples were taken at 0, 5, 15, 30, 45, and 60 minute intervals and analyzed as described above. Verapamil (rapid clearance) and Diazepam (low clearance) were used as references.
Alternatively, hepatic microsomal stability of cannabinoid glycosides was determined as follows. HepaRG™ pooled human liver microsomes (Sigma) (final protein concentration=0.5 mg/mL) were mixed with alamethicin (25 μg/mg), 0.1 M phosphate buffer (pH=7.4) and the test compound (1 μM final in DMSO) and incubated at 37° C. prior to addition of NADPH (final concentration 1 mM) and UDP-glucuronic acid (final concentration 1 mM) to initiate the reaction. The compound was incubated for 0, 5, 15, 30, and 45 minutes and the reaction terminated by adding acetonitrile in a 1:3 ratio (v/v). Reactions were centrifuged at 3000 rpm for 20 min at 4° C. to precipitate the protein. Following protein precipitation, internal standards were added to the sample supernatants and analyzed by LC-MS to measure the concentration of compound remaining at each time point, quantification was achieved by comparison to authentic analytical standards.
In vitro hepatic microsomal stability was performed for CBD, CBD-1′-O-β-D-glucoside (OB1), and CBD-1′-O-β-D-glucosyl-3′-O-β-D-glucoside (OB6) as described above and the intrinsic clearance (CLint) and half-life (t1/2) of each compound was determined.

Caco-2 cells = test: Caco-2 bi-directional permeability assay; format: in vitro ADME, human; conditions: for efflux ratio compared to CBD / permeability coefficient (Papp) A to B and B to A compared to unmodified CBD: Caco-2, 10 μM; for efflux ratio compared to CBD / permeability coefficient (Papp) A to B and B to A compared to unmodified CBD / Mean recovery (%), Direction A→B / Mean Papp, Direction A→B / Mean recovery (%), Direction B→A / Mean Papp, Direction B→A: 120 min; for % recovery compared to CBD: Caco-2, both compartments; for Mean recovery (%), Direction A→B / Mean Papp, Direction A→B: apical to basolateral; for Mean Papp, Direction A→B / Mean Papp, Direction B→A: mean and standard deviation of duplicates; for Mean recovery (%), Direction B→A / Mean Papp, Direction B→A: basolateral to apical; for Efflux ratio: ratio of B−A and A−B permeabilities
Description: Intestinal permeability of cannabinoids and glycosylated cannabinoids was determined by measuring bi-directional transport across Caco-2 cell membranes. Caco-2 cells are used as an in vitro model of the human intestinal epithelium and permit assessment of the intestinal permeability of potential drugs. The test compound is added to either the apical or basolateral side of a confluent monolayer of Caco-2 cells and permeability is measured by monitoring the appearance of the test compound on the opposite side of the monolayer using LC-MS/QTOF. When performing a bi-directional assay, the efflux ratio (ER) is calculated from the ratio of B−A and A−B permeabilities. Caco-2 cells obtained from the ATCC are used between passage numbers 40-60. Cells are seeded onto Millipore Multiscreen Transwell plates at 1×10^5 cells/cm2. The cells are cultured in DMEM and media is changed every two or three days. On day 20 the permeability study is performed. Cell culture and assay incubations are carried out at 37° C. in an atmosphere of 5% CO2 with a relative humidity of 95%. On the day of the assay, the monolayers are prepared by rinsing both apical and basolateral surfaces twice with Hanks Balanced Salt Solution (HBSS) at the desired pH warmed to 37° C. Cells are then incubated with HBSS at the desired pH in both apical and basolateral compartments for 40 min to stabilize physiological parameters. 10 mM solutions of cannabinoids and cannabinoid glycosides are prepared in DMSO then diluted with assay buffer to give a final test compound concentration of 10 μM (final DMSO concentration of 1% v/v). The fluorescent integrity marker lucifer yellow is also included in the solution.
Analytical standards are prepared from test compound DMSO dilutions and transferred to buffer, maintaining a 1% v/v DMSO concentration. For assessment of A−B permeability, HBSS is removed from the apical compartment and replaced with test compound solution. The apical compartment insert is then placed into a companion plate containing fresh buffer (containing 1% v/v DMSO). For assessment of B−A permeability, HBSS is removed from the companion plate and replaced with test compound solution. Fresh buffer (containing 1% v/v DMSO) is added to the apical compartment insert, which is then placed into the companion plate. At 120 min the apical compartment inserts and the companion plates are separated and apical and basolateral samples diluted for analysis. Test compound permeability is assessed in duplicate. Compounds of known permeability characteristics are run as controls on each assay plate. Test and control compounds are quantified by LC-MS/QTOF as described above. The starting concentration (C0) is determined from the solution and the experimental recovery calculated from C0 and both apical and basolateral compartment concentrations. The integrity of the monolayer throughout the experiment is checked by monitoring lucifer yellow permeation using fluorometric analysis. The permeability coefficient (Papp) for each compound is calculated from the following equation: Papp=(dQ/dt)/(C0×A) Where dQ/dt is the rate of permeation of the drug across the cells, C0 is the donor compartment concentration at time zero and A is the area of the cell monolayer. C0 is obtained from analysis of the dosing solution. The efflux ratio (ER) is calculated from mean Papp values from A−B and B−A data. This is derived from: ER=Papp(B−A)/Papp(A−B). The % recovery is calculated from the following equation; % recovery=(Total compound in donor and receiver compartment at end of experiment)/(initial compound present)×100.
CBD glycosides were produced using glycosyl transferases and purified as described above. […] Low recovery of compound in a Caco-2 permeability assay can indicate problems with poor solubility, binding of the compound to the plate, metabolism by the Caco-2 cells or accumulation of the compound in the cell monolayer.

| Structure (SMILES) | % of substrate remaining in solution ([1]; Acidic (pH 1.1), 24 h) [%] | % of substrate remaining in solution ([1]; Alkaline (pH 12.5), 24 h) [%] | % of substrate remaining in solution ([1]; Heat (60° c.), 24 h) [%] | % of substrate remaining in solution ([1]; Oxidative (H2O2 3%), 24 h) [%] | percent remaining after 24 h exposure relative to a control at ambient conditions ([1]; 30° C.) [%] | release of CBD aglycone (stability of the glucoside bond) ([1]; 24 h) | CLint [2] [μL/min/mg protein] | t1/2 [2] [min] | efflux ratio compared to CBD (Caco-2 cells) | permeability coefficient (Papp) A to B and B to A compared to unmodified CBD (Caco-2 cells) | % recovery compared to CBD (Caco-2 cells) | Mean recovery (%), Direction A→B (Caco-2 cells) [%] | Mean Papp, Direction A→B (Caco-2 cells) | Mean recovery (%), Direction B→A (Caco-2 cells) [%] | Mean Papp, Direction B→A (Caco-2 cells) | Efflux ratio (Caco-2 cells) | further results |
| --- | --- | --- | --- | --- | --- | --- | --- | --- | --- | --- | --- | --- | --- | --- | --- | --- | --- |
| C=C(C)[C@@H]1CCC(C)=C[C@H]1c1c(O)cc(CCCCC)cc1O[C@@H]1O[C@H](CO)[C@@H](O)[C@H](O)[C@H]1O [OB1, CBD-1′-O-β-D-glucoside] | 80.02 | 100.27 | 84.35 | 92.98 | 100 | no CBD aglycone was detected | 1110 ± 0.312 | 1.24 | higher efflux ratio | significantly higher permeability coefficients in both directions | successively higher rates of recovery | 69.8 | 10.40 ± 0.31 10^−6 cms^−1 | 79.7 | 35.70 ± 0.34 10^−6 cms^−1 | 3.43 | % accumulation of THC-1′-O-β-D-glucoside (OB20) ([1]; Acidic (pH 1.1), 24 h): 1.61%; accumulation of degradation product THC-1′-O-β-D-glucoside (OB20) ([1]; acidic conditions (HCl, final pH 1.1), 30° C., 24 h): a small amount of THC-1′-O-β-D-glucoside (OB20) was detected |
| C=C(C)[C@@H]1CCC(C)=C[C@H]1c1c(O)cc(CCCCC)cc1O [CBD, cannabidiol, reference compound] | 63.90 | 2.26 | 72.76 | 70.56 | 2.26 |  |  | 3.77 |  |  |  |  |  |  |  |  | accumulation of degradation product THC ([1]; acidic and alkaline conditions, 24 h): degrades to THC; stability under stress conditions ([1]; all conditions tested (acidic, alkaline, oxidative, heat), 24 h): unstable under all conditions tested; microsomal CLint at 1 μM ([2]; human, microsomes, pH 7.4): 368 ± 0.684 µL/min/mg |
| C=C(C)[C@@H]1CCC(C)=C[C@H]1c1c(O[C@@H]2O[C@H](CO)[C@@H](O)[C@H](O)[C@H]2O)cc(CCCCC)cc1O[C@@H]1O[C@H](CO)[C@@H](O)[C@H](O)[C@H]1O [OB6, CBD-1′-O-β-D-glucosyl-3′-O-β-D-glucoside] | 91.90 | 100.62 | 80.79 | 74.98 | 100 | no CBD aglycone was detected | 7.39 ± 1.32 | 188 | higher than both CBD and OB1 | permeability coefficients were lower | successively higher rates of recovery | 91.9 | 0.10 ± 0.05 10^−6 cms^−1 | 87.8 | 0.44 ± 0.17 10^−6 cms^−1 | 4.31 | accumulation of THC or THC-glucoside ([1]; any of the conditions (acidic, alkaline, oxidative, heat), 24 h): no THC or THC-glucoside was detected; decrease in intrinsic clearance versus CBD ([2]; human liver microsomes): 50 fold; increase in half-life versus CBD ([2]; human liver microsomes): 50 fold |
